Patent publication US20230270696A1, “MEDICINAL USE OF FINGOLIMOD IN PREVENTION AND TREATMENT OF NEURODEGENERATIVE DISEASES CAUSED BY SPHINGOLIPID DISORDERS” (priority 2020, published 2023)
Where a name gives a salt, the structure may show the parent alone.

Assays:
[1] = tested on: MEF cells deficient in ATP13A2; assay: Drug screening: intracellular sphingomyelin (SM C18) content by mass spectrometry; format: cell-based, mouse; conditions: ATP13A2 KO MEF cells treated 48 hours (FIG. 8 legend: 10 μM, 37° C., 24 h)
Protocol: Experimental method: ten potential sphingolipid metabolic drugs reported in the literature for screening the modulatory effects on intracellular sphingolipids are selected, namely Fingolimod, Fluoxetine, Amitriptyline, Clomipramine, Desipramine, Siponimod, KRP-203, Amlodipine, Sertraline, Trimipramine, etc. MEF cells with disease-causing gene ATP13A2 KO are obtained using the disease model mouse embryos isolated and cultured. The MEF cells deficient in ATP13A2 are treated with the above ten drugs individually for 48 hours, and the intracellular content of sphingomyelin (SM C18) is measured by mass spectrometry.

[2] = tested on: ATP13A2 KO neurodegenerative disease model mice; assay: Lipidomic assay of striatum brain tissue (LC-MS); format: in vivo, mouse; conditions: one week after i.p. 0.5 mg/kg
Protocol: Experimental method: the experiment is divided into 4 groups: C57BL/6 normal WT mice+normal saline control group (WT+C group), ATP13A2 KO neurodegenerative disease model mice+normal saline control group (KO+C group), normal WT mice+FTY720 group (WT+FTY720 group), and ATP13A2 KO neurodegenerative disease model mice+FTY720 group (KO+FTY720 group). One week after intraperitoneal injection of FTY720 (0.5 mg/kg), mice are sampled from the striatum of brain tissue, lipids are extracted from the brain tissue samples using a lipid extraction method, appropriate internal standards are added. All lipid analysis is performed in electrospray ionization (ESI) mode using a liquid mass spectrometer.

[3] = tested on: ATP13A2 KO neurodegenerative disease model mice; assay: Transmission electron microscopy of brain tissue (lipofuscin deposition, axonal myelin sheath tearing); format: in vivo, mouse; conditions: two weeks after oral administration, TEM
Description: Experimental method: The experiments are divided into three groups: C57BL/6 wild normal mice (WT), ATP13A2 KO neurodegenerative disease model mice+normal saline control (KO+C), and FTY720 treatment ATP13A2 KO mice (KO+FTY720). Mice are executed two weeks after oral administration, and brain tissue is removed and fixed for transmission electron microscopy analysis.

[4] = tested on: aged ATP13A2 KO paraplegic mouse; assay: Standing in beaker and hind limb foot-based angle (FBA) before and after drug administration; format: in vivo
Protocol: (§1) Experimental method: The experiment is divided into four groups: C57BL/6 normal WT mice+normal saline control group (WT+C group), ATP13A2 KO aged disease model mice+normal saline control group (KO+C group), normal WT mice+FTY720 group (WT+FTY720 group), and ATP13A2 KO neurodegenerative disease model mice+FTY720 group (KO+FTY720 group). The mice are administered orally (0.5 mg/kg/day), and after two weeks, the movement function of the mice is examined using the standing test and the rotating rod test.
Meanwhile, the same aged ATP13A2 KO neurodegenerative disease mouse is placed in an upright glass beaker to observe its standing (FIG. 19). […] The angle of the hind limb to the ground (FBA, foot-based angle) in the aged ATP13A2 KO paraplegic mouse is also measured.

[5] = tested on: ATP13A2 KO neurodegenerative disease model mice; assay: Rotating rod test of movement function; format: in vivo, mouse
Protocol: Experimental method: five drugs, including fingolimod, fluoxetine, clomipramine, desipramine, and trimipramine, are selected for oral administration (0.5 mg/kg) to diseased mice. The effect of the drugs on the movement function of the mice is examined one week after drug administration.
Experimental method: The experiment is divided into four groups: C57BL/6 normal WT mice+normal saline control group (WT+C group), ATP13A2 KO neurodegenerative disease model mice+normal saline control group (KO+C group), normal WT mice+FTY720 group (WT+FTY720 group), and ATP13A2 KO neurodegenerative disease model mice+FTY720 group (KO+FTY720 group). The mice are injected intraperitoneally with FTY720 (0.25 mg/kg/day, i.p.). 5 days later, the mice are tested for movement function using a rotating rod test.
Experimental method: The experiment is divided into four groups: C57BL/6 normal WT mice+normal saline control group (WT+C group), ATP13A2 KO neurodegenerative disease model mice+normal saline control group (KO+C group), normal WT mice+FTY720 group (WT+FTY720 group), ATP13A2 KO neurodegenerative disease model mice+FTY720 group (KO+FTY720 group). FTY720 dissolved in water is administered to mice orally administered (0.5 mg/kg/day), and one week later, the mice are tested for movement function using the rotating rod test.
Experimental method: The experiment is divided into four groups: C57BL/6 normal WT mice+normal saline control group (WT+C group), ATP13A2 KO neurodegenerative disease model mice+normal saline control group (KO+C group), normal WT mice+FTY720 group (WT+FTY720 group), and ATP13A2 KO neurodegenerative disease model mice+FTY720 group (KO+FTY720 group). A single administration (10 μg, i.c.v.) is administered to the mice by ventricular injection, and one week later, the mice are tested for movement function using the rotating rod test.
as §1

[6] = tested on: ATP13A2 KO spastic paraplegic model mice; assay: Standing test (number of standing per 30 minutes); format: in vivo, mouse
Protocol: 1-7 days with administration treatment on the disease model mice (shaded), 7-14 days with discontinuation treatment (unshaded), and 15-21 days with restored secondary administration treatment (shaded).
Experimental method: Spastic paraplegic ATP13A2 KO mice (KO mice) are divided into four groups and given normal saline or FTY720 dissolved in normal saline at 0.05, 0.1, and 0.5 mg/kg/day for oral administration, and the mice are tested in a standing test after 7 days of oral administration.
Experimental method: The experiment is divided into two groups: C57BL/6 wild normal mice (WT) and ATP13A2 KO spastic paraplegic model mice (KO), which are administered FTY720 0.5 mg/k/day orally at the same time, discontinued after 0-7 days of administration, and resumed after one week of discontinuation, during which the mice are tested for standing every other day.
as §1

sphingomyelinase = assay: Sphingomyelinase activity assay (Sphingomyelinase Assay Kit ab138876) with or without FTY720; format: biochemical; conditions: different sphingomyelinase concentrations, sphingomyelin as substrate, 60 min at 37° C., absorbance
Protocol: Different concentrations (horizontal axis) of purified sphingomyelinase are added in the presence or absence of FTY720 and incubation proceeded for 60 min at 37° C., before measuring sphingomyelin breakdown in absorbance. Blue line (top line): value of sphingomyelinase activity under normal control conditions, red line (bottom line): value of sphingomyelinase activity in the presence of FTY720.
Embodiment 4: Direct inhibition of sphingomyelinase by FTY720 Experimental method: FTY720 is purchased from Sigma, Cas No. 162359-56-0. Sphingomyelinase activity is determined using the Sphingomyelinase Assay Kit (ab138876) kit. The experiment is divided into two groups: normal sphingomyelinase activity assay group and sphingomyelinase activity assay group in the presence of FTY720.

[7] = tested on: ATP13A2 KO neurodegenerative disease model mice; assay: Expression of genes related to sphingolipid metabolism in orbitofrontal cortex; format: in vivo, mouse; conditions: one week after i.p. 0.5 mg/kg
Protocol: Red (dark) color indicates high expression and blue (light) color indicates low expression.
Experimental method: the experiment is divided into 4 groups: C57BL/6 normal WT mice+normal saline control group (WT+C group), ATP13A2 KO neurodegenerative disease model mice+normal saline control group (KO+C group), normal WT mice+FTY720 group (WT+FTY720 group), and ATP13A2 KO neurodegenerative disease model mice+FTY720 group (KO+FTY720 group). One week after intraperitoneal injection of FTY720 (0.5 mg/kg), samples are extracted from the orbitofrontal cortex area of mouse brain tissue, and Smpd1 Smpd2 Smpd3 Smpd4 Enpp7 Asah1 Asah2 Acer1 Acer2 Acer3 Cers1 Cers2 Cers3 Cers4 Cers5 Cers6 Col4a3 bp Cerk Gba Ugcg Degs1 Degs2 Sgpl1 Sptlc1 Sptic2 Sptic3 Abca1 Abca2 Abca7 Abca12 Abcc1 Abcg1 Abcg2 Sgms1 Sgms2 Cftr Sphk1 Sphk2 Slpr1 Kit Hexa Hexb Gal3st1 Gaphdh TERC TERT Ki67, etc. totally 47 genes related to sphingolipid metabolism are analyzed for comparison.

[8] = tested on: ATP13A2 KO neurodegenerative disease model mice; assay: Brain tissue neurotransmitter content by HPLC; format: in vivo, mouse; conditions: one week after i.p. 0.5 mg/kg, striatum, hypothalamus, substantia nigra
Protocol: Experimental method: the experiment is divided into four groups: C57BL/6 normal WT mice+normal saline control group (WT+C group), ATP13A2 KO neurodegenerative disease model mice+normal saline control group (KO+C group), normal WT mice+FTY720 group (WT+FTY720 group), and ATP13A2 KO neurodegenerative disease model mice+FTY720 group (KO+FTY720 group). One week after mice are injected intraperitoneally with FTY720 (0.5 mg/kg), samples are taken from the striatum, hypothalamus, and substantia nigra of mouse brain tissue to extract neurotransmitters in the brain. Using a high performance liquid chromatography, neurotransmitters such as dopamine, serotonin, and γ-aminobutyric acid are analyzed.

[9] = aged ATP13A2 KO mice, oral 0.5 mg/kg/day, two weeks

Structure (SMILES): CN(C)CCC=C1c2ccccc2CCc2ccccc21 [amitriptyline]
- intracellular sphingomyelin (SM C18) content [1]: most obvious elevation

Structure (SMILES): CN(C)CCCN1c2ccccc2CCc2ccc(Cl)cc21 [clomipramine]
- intracellular sphingomyelin (SM C18) content [1]: most obvious elevation

Structure (SMILES): CNCCC(Oc1ccc(C(F)(F)F)cc1)c1ccccc1 (centres unmarked) [fluoxetine]
- intracellular sphingomyelin (SM C18) content [1]: most obvious elevation

Structure (SMILES): CCCCCCCCc1ccc(CCC(N)(CO)CO)cc1 [FTY720, 2-amino-2-[2-(4-octylphenyl)]-1,3-propanediol hydrochloride]
- content of sphingomyelin and ceramide in striatum [2]: mostly restores to the normal group level
- number of intracellular lipofuscins in brain tissue ([3]; more than 100 cells counted): significantly reduced
- number of torn axonal myelin sheaths in brain tissue ([3]; more than 100 myelin sheaths counted): significantly reduced
- standing in an upright glass beaker after drug administration ([4]; same aged ATP13A2 KO mouse before and after drug, oral 0.5 mg/kg/day): can be photographed to stand up by clinging to the beaker wall
- angle of the hind limb to the ground (FBA, foot-based angle) ([4]; same aged ATP13A2 KO paraplegic mouse before and after drug): significant increase
- duration of stay in the rotating rod ([5]; 0.25 mg/kg/day i.p., 5 days, ATP13A2 KO mice vs control group): significantly longer
- duration of stay in the rotating rod [5, 9]: significantly longer
- motor function (rotating rod), screen of five drugs ([5]; oral 0.5 mg/kg, one week after drug administration, ATP13A2 KO mice): improves the motor function of the ATP13A2 KO disease model mice among the five drugs with the most significant effect
- duration of stay in the rotating rod ([5]; oral 0.5 mg/kg/day, one week, ATP13A2 KO mice vs control group): significantly longer
- duration of stay in the rotating rod ([5]; single 10 μg i.c.v., one week later, ATP13A2 KO mice vs control group): significantly longer
- number of standing [6, 9]: significant increase
- number of standing after drug discontinuation ([6]; one week of discontinuation after 7 days oral 0.5 mg/k/day): gradual decrease
- number of standing per 30 minutes during administration ([6]; oral 0.5 mg/k/day, days 0-7, ATP13A2 KO paraplegic mice): increases significantly with increasing administration time
- number of standing per 30 minutes ([6]; oral 0.05, 0.1 and 0.5 mg/kg/day, after 7 days, ATP13A2 KO paraplegic mice): increased to different degrees in a dose-dependent manner
- number of standing after resumption of administration ([6]; resumed oral administration, days 15-21): gradual increase
- sphingomyelinase activity compared to the control group (sphingomyelinase): significant decrease
- expression of cers4, cerk and sphk1 [7]: downregulated
- expression of smpd1 and enpp7 [7]: upregulated
- intracellular sphingomyelin (SM C18) content [1]: most obvious elevation
- neurotransmitter contents (dopamine, serotonin, γ-aminobutyric acid) in brain tissue [8]: restored to the normal group level
